Assay results: patent US20230089867A1, “CYCLIC PENTAMER COMPOUNDS AS PROPROTEIN CONVERTASE SUBTILISIN/KEXIN TYPE 9 (PCSK9) INHIBITORS FOR THE TREATMENT OF METABOLIC DISORDER” (Novartis AG, priority 2018, published 2023)
pIC50: −log10 of the molar value.

Target: human PCSK9 (Homo sapiens, UniProt Q8NBP7)
Test: PCSK9 ligand binding TR-FRET assay (interference with binding of human PCSK9 to human LDLR)
Settings: for Max % inhibition: PCSK9 FRET assay, efficacy (Amax), 100% = 1 uM unlabeled human PCSK9, 0% = DMSO; for pIC50: TR-FRET, human PCSK9 Alexa Fluor 647 / human LDLR extracellular domain-Europium Kryptate, read-out: PCSK9 FRET Assay IC50
Outline: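 Threefold compound dilutions were pre-incubated 30 min with PCSK9, after which 4 nM Europium Kryptate-tagged human LDLR ectodomain was added for a further 2 h.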

Chain of human PCSK9 (Q8NBP7 153-692): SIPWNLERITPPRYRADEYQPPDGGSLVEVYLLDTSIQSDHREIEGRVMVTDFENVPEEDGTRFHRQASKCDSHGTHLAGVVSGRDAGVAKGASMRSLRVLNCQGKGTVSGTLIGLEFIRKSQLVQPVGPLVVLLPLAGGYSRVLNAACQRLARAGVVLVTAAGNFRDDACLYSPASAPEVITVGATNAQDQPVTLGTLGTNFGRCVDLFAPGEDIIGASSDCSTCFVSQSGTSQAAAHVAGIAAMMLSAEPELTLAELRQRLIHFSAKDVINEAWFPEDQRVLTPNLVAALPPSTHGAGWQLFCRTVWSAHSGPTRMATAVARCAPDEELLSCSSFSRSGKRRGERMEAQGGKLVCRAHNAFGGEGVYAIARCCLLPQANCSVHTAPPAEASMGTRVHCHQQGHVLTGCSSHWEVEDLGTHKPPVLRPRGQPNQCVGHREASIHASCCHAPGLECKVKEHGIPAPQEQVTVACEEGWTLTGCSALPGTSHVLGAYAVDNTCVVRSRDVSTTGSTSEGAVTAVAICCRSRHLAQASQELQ
Chain of human PCSK9 (Q8NBP7 31-152 partner limits assumed): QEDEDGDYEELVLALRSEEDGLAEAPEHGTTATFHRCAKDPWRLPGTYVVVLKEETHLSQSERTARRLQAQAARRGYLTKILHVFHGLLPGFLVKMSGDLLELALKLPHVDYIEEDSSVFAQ

SMILES | Max % inhibition [%] | pIC50
COC[C@@H]1NC(=O)[C@H](CCCN)N(Cc2ccc(Cl)cc2Oc2ccc(-c3cnc(CN(C)C)n3C)cc2)C(=O)C[C@@H](Cc2ccccc2)C(=O)N(C)[C@@H](C)CNC(=O)C[C@H](Cc2ccc(Cl)cc2)N(C)C1=O [Compound 192, (2S,5S,8S,13S,16R)-2-(3-aminopropyl)-16-benzyl-1-(4-chloro-2-(4-(2-((dimethylamino)methyl)-1-methyl-1H-imidazol-5-yl)phenoxy)benzyl)-8-(4-chlorobenzyl)-5-(methoxymethyl)-7,13,14-trimethyl-1,4,7,11,14-pentaazacyclooctadecane-3,6,10,15,18-pentaone] | 97.97 | 6.97
C[C@@H]1CC(=O)N(Cc2ccc(Cl)cc2Oc2ccc(-c3cnc(CN(C)C)n3C)cc2)[C@@H](C)C(=O)N[C@@H](CO)C(=O)N(C)[C@@H](Cc2ccc(Cl)cc2)CC(=O)NC[C@H](C)N(C)C1=O [Compound 193, (2S,5S,8S,13S,16R)-1-(4-chloro-2-(4-(2-((dimethylamino)methyl)-1-methyl-1H-imidazol-5-yl)phenoxy)benzyl)-8-(4-chlorobenzyl)-5-(hydroxymethyl)-2,7,13,14,16-pentamethyl-1,4,7,11,14-pentaazacyclooctadecane-3,6,10,15,18-pentaone] | 84.54 | 8.21
COC[C@@H]1NC(=O)[C@H](C)N(Cc2ccc(Cl)cc2Oc2ccc(-c3cnc(CN(C)C)n3C)cc2)C(=O)CCC(=O)N(C)[C@@H](C)CNC(=O)C[C@H](Cc2ccc(Cl)cc2)N(C)C1=O [Compound 195, (2S,5S,8S,13S)-1-(4-chloro-2-(4-(2-((dimethylamino)methyl)-1-methyl-1H-imidazol-5-yl)phenoxy)benzyl)-8-(4-chlorobenzyl)-5-(methoxymethyl)-2,7,13,14-tetramethyl-1,4,7,11,14-pentaazacyclooctadecane-3,6,10,15,18-pentaone] | 100.43 | 7.13
COC[C@@H]1NC(=O)[C@H](C)N(Cc2ccc(Cl)cc2Oc2ccc(-c3cnc(OC)n3C)cc2)C(=O)C[C@@H](Cc2ccccc2)C(=O)N(C)[C@@H](C)CNC(=O)C[C@H](Cc2ccc(Cl)cc2)N(C)C1=O [Compound 197, (2S,5S,8S,13S,16R)-16-benzyl-1-(4-chloro-2-(4-(2-methoxy-1-methyl-1H-imidazol-5-yl)phenoxy)benzyl)-8-(4-chlorobenzyl)-5-(methoxymethyl)-2,7,13,14-tetramethyl-1,4,7,11,14-pentaazacyclooctadecane-3,6,10,15,18-pentaone] | 72.51 | 7.76

These reach a higher pIC50. Values come first.

Max % inhibition [%] | pIC50 | SMILES
96.92 | 8.26 | C[C@@H]1C(=O)N[C@@H](CO)C(=O)N(C)[C@@H](Cc2ccc(Cl)cc2)CC(=O)N[C@H]2CCCC[C@@H]2N(C)C(=O)[C@H](Cc2ccccc2)CC(=O)N1Cc1ccc(Cl)cc1Oc1ccc(-c2cnc(CN(C)C)n2C)cc1 [Compound 194, (4S,7S,10R,14R,16aS,20aS)-14-benzyl-11-(4-chloro-2-(4-(2-((dimethylamino)methyl)-1-methyl-1H-imidazol-5-yl)phenoxy)benzyl)-4-(4-chlorobenzyl)-7-(hydroxymethyl)-5,10,16-trimethylhexadecahydrobenzo[l][1,4,7,11,14]pentaazacyclooctadecine-2,6,9,12,15(3H)-pentaone]
97.92 | 8.52 | COC[C@@H]1NC(=O)[C@H](C)N(Cc2c(Oc3ccc(-c4cnc(CN(C)C)n4C)cc3)cccc2OC(F)F)C(=O)CCC(=O)N(C)[C@H]2CCCC[C@@H]2NC(=O)C[C@H](Cc2ccc(Cl)cc2)N(C)C1=O [Compound 196, (4S,7S,10S,16aS,20aS)-4-(4-chlorobenzyl)-11-(2-(difluoromethoxy)-6-(4-(2-((dimethylamino)methyl)-1-methyl-1H-imidazol-5-yl)phenoxy)benzyl)-7-(methoxymethyl)-5,10,16-trimethylhexadecahydrobenzo[l][1,4,7,11,14]pentaazacyclooctadecine-2,6,9,12,15(3H)-pentaone]
